Assays:
[1] = biological target: hBChE (Homo sapiens, UniProt P06276); assay: hBChE inhibition, Ellman's colorimetric method; format: biochemical; details: IC50 ± SEM hBChE, n = 3
[2] = biological target: hAChE (Homo sapiens, UniProt P22303); assay: hAChE inhibition, Ellman's colorimetric method; format: biochemical
[3] = biological target: hBACE-1 (Homo sapiens, UniProt P56817); assay: BACE-1 inhibition, FRET-based fluorometric assay; format: biochemical
[4] = DPPH radical scavenging assay; details: in methanol
[5] = biological target: PAS of hAChE (Homo sapiens, UniProt P22303); assay: Propidium iodide displacement assay; format: binding; details: for inhibition at 10 µM: read-out: (%) PAS-AChE propidium iodide displacement (% inhibition) at 10 μM; for inhibition at 50 µM: read-out: (%) PAS-AChE propidium iodide displacement (% inhibition) at 50 μM
PAS of hAChE, sequence (P22303 32-614): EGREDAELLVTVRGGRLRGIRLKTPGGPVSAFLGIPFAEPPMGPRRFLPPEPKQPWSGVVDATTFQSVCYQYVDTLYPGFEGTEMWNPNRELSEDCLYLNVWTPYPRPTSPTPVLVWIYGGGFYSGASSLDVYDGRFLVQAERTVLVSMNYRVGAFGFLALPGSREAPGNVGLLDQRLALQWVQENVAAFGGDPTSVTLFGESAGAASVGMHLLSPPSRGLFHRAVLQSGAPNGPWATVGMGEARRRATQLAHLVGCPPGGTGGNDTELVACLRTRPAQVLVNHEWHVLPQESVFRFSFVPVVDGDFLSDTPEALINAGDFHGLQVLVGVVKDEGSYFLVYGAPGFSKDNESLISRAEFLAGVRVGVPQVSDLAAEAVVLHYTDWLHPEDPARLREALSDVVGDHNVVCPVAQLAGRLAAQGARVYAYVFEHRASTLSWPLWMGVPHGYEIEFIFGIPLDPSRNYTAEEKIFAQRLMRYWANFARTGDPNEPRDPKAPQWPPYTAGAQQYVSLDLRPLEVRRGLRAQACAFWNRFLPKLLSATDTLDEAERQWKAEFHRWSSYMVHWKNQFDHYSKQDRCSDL

[6] = biological target: T1, AChE (Mus musculus, UniProt P21836); assay: Ex vivo AChE level in hippocampal brain homogenate; set-up: species or system Swiss albino mice; details: in comparison with scopolamine-treated group
T1 sequence (P21836 32-614): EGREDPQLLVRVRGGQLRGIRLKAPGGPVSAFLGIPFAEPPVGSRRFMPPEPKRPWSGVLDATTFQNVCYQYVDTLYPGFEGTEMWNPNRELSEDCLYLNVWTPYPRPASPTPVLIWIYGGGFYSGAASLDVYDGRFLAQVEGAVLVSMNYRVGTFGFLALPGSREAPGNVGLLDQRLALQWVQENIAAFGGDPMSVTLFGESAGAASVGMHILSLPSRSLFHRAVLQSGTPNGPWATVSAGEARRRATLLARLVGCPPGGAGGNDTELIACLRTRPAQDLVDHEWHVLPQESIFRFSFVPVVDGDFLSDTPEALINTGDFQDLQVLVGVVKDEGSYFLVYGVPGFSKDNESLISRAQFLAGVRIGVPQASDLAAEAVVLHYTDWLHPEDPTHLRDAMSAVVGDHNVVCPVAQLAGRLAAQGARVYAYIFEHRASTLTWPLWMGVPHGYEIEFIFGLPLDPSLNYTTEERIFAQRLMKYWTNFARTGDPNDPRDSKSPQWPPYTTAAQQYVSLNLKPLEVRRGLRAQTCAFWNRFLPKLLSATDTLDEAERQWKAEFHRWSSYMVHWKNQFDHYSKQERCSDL

[7] = system: Swiss albino mice; assay: Scopolamine-induced Y-maze test; format: in vivo; details: scopolamine-induced cognitive dysfunction mice model, p < 0.001
[8] = system: catalase (CAT); assay: Ex vivo catalase; format: in vivo, Swiss albino mice; details: hippocampal brain homogenate
[9] = in vitro; details: pig, PAMPA, pH 7.4

hAChE, sequence (P22303 32-617 isoform P22303-2 limits assumed): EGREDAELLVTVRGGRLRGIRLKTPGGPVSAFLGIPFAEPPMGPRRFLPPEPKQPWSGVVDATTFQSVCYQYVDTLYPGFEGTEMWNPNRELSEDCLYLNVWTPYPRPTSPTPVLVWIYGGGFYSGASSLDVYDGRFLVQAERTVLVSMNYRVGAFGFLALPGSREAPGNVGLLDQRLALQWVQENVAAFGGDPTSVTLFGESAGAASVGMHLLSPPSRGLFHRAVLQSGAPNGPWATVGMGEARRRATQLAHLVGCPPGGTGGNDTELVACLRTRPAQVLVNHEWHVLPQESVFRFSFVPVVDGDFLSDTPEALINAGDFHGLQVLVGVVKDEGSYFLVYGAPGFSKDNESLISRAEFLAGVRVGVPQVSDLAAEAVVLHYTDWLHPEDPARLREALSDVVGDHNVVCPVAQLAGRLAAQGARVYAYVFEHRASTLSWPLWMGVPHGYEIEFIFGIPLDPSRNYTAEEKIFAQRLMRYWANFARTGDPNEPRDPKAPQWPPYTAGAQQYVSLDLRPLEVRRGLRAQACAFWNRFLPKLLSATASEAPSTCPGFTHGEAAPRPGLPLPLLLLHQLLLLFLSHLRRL
hBACE-1, sequence (P56817 46-501): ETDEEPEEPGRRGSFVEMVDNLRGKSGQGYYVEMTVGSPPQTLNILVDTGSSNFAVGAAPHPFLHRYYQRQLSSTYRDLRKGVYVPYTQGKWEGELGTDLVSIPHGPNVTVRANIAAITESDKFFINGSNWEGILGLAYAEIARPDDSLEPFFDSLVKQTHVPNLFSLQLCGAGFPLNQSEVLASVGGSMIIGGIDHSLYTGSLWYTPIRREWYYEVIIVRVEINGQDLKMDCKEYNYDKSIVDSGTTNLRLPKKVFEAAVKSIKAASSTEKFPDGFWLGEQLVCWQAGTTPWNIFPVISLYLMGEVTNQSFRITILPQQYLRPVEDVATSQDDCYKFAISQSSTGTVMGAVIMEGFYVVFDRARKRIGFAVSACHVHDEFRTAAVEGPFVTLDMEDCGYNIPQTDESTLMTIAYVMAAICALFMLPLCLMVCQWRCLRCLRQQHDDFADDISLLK
hBChE, sequence (P06276 29-602): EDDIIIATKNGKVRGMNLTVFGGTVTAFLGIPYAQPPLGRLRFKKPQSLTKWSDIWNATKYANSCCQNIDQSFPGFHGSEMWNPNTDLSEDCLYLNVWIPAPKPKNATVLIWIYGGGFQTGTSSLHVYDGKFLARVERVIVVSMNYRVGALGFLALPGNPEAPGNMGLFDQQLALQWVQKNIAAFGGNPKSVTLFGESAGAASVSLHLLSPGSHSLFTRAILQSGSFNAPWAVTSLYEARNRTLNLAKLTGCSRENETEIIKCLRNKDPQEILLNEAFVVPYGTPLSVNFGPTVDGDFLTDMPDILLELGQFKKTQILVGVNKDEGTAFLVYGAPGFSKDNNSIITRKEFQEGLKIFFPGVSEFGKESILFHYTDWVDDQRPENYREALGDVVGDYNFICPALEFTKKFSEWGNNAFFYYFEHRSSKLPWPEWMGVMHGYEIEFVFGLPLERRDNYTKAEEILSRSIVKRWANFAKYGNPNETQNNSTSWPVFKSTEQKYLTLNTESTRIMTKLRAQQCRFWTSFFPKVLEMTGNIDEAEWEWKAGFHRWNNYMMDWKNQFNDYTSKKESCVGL

SMILES | IC50 [1] [µM] | IC50 [2] [µM] | IC50 [3] [µM] | % RSA of DPPH ± SEM at 25 μM [4] [%] | inhibition at 10 µM [5] [%] | inhibition at 50 µM [5] [%] | AChE level in hippocampal brain homogenate [6] | learning and memory [7] | catalase (CAT) level in brain homogenate [8] | Papp [9] [×10⁻⁶ cm/s]
c1ccc(-c2nnc(CN3CCN(c4ccccc4)CC3)o2)cc1 [5AA, 2-Phenyl-5-((4-phenylpiperazin-1-yl)methyl)-1,3,4-oxadiazole] | > 10 | 1.83 ± 0.076 |  |  |  |  |  |  |  | 
c1ccc(CN2CCN(Cc3nnc(-c4ccccc4)o3)CC2)cc1 [5AB, 2-((4-Benzylpiperazin-1-yl)methyl)-5-phenyl-1,3,4-oxadiazole] | > 10 | 1.79 ± 0.032 | > 10 | 42.24 | 18.4 ± 1.07 | 29.5 ± 1.33 |  |  |  | 
c1ccc(-c2nnc(CN3CCN(C(c4ccccc4)c4ccccc4)CC3)o2)cc1 [5AC, 2-((4-Benzhydrylpiperazin-1-yl)methyl)-5-phenyl-1,3,4-oxadiazole] |  | 3.15 ± 0.0202 | 5.62 ± 0.073 |  |  |  |  |  |  | 
c1ccc(-c2nnc(CN3CCN(c4ccccn4)CC3)o2)cc1 [5AD, 2-Phenyl-5-((4-(pyridin-2-yl)piperazin-1-yl)methyl)-1,3,4-oxadiazole] | ≥ 10 | 0.103 ± 0.0172 | 1.34 ± 0.078 | 44.35 |  |  | decrease in AChE | significant improvement in learning and memory | increase in catalase | 6.5 ± 0.072
O=[N+]([O-])c1ccc(N2CCN(Cc3nnc(-c4ccccc4)o3)CC2)cc1 [5AF, 2-((4-(4-Nitrophenyl)piperazin-1-yl)methyl)-5-phenyl-1,3,4-oxadiazole] | > 10 | 1.87 ± 0.0441 | 6.242 ± 0.03 |  |  |  |  |  |  | 
Cc1ccc(N2CCN(Cc3nnc(-c4ccccc4)o3)CC2)cc1 [5AG, 2-Phenyl-5-((4-(p-tolyl)piperazin-1-yl)methyl)-1,3,4-oxadiazole] | > 10 | 2.59 ± 0.0169 | 3.81 ± 0.039 | 36.30 ± 2.5 |  |  |  |  |  | 
COc1ccc(N2CCN(Cc3nnc(-c4ccccc4)o3)CC2)cc1 [5AH, 2-((4-(4-Methoxyphenyl)piperazin-1-yl)methyl)-5-phenyl-1,3,4-oxadiazole] | > 10 | 1.48 ± 0.0719 | 1.685 ± 0.012 | 38.78 ± 2.9 | 19.2 ± 1.81 | 26.7 ± 1.34 |  |  |  | 5.8 ± 0.175
Cc1ccc(CN2CCN(Cc3nnc(-c4ccccc4)o3)CC2)cc1 [5AI, 2-((4-(4-Methylbenzyl)piperazin-1-yl)methyl)-5-phenyl-1,3,4-oxadiazole] |  | 1.797 ± 0.0081 | 0.392 ± 0.021 | 36.24 ± 2.6 | 17.7 ± 1.26 |  |  |  |  | 
O=C1O[C@H]([C@@H](O)CO)C(O)=C1O [Ascorbic acid, reference compound] |  |  |  | 59.65 ± 2.3 |  |  |  |  |  | 

Reference: PMC11044217 (ACS Omega, 2024)
